According to patent US20250032476A1, “ALPHA-2A ADRENERGIC RECEPTOR MODULATORS AND USES THEREOF” (The Regents of the University of California, priority 2021, published 2025):
Read-outs that look alike come from different tables or passages of the source.

Columns and labels:
[1] = molecular target: α2AAR-S215^5.42A (Homo sapiens (Human), UniProt P08913, S215A); test: Gi activation (BRET) at α2AAR S215^5.42A mutant; type: cell-based; details: versus wild type
Protocol: Investigating the sensitivity of selected ligands to the receptor mutants α2AAR-D128^3.32A, α2AAR-D128^3.32T, α2AAR-D128^3.32L, α2AAR-S215^5.42A, α2AAR-Y409^6.55A, α2AAR-Y409^6.55T, α2AAR-Y409^6.55F, α2AAR-F427^7.39F, α2AAR-Y431^7.43A, and α2AAR-Y431^7.43F was determined by monitored G protein stimulation as described above transfecting the appropriate receptor together with Gαi1-RLucII and Gβ1/Gγ1-GFP10. […] Three to ten experiments were done in duplicate.
The sensitivity of selected ligands to the receptor mutants α2AAR-D128^3.32A, α2AAR-D128^3.32T, α2AAR-D128^3.32L, α2AAR-S215^5.42A, α2AAR-Y409^6.55A, α2AAR-Y409^6.55T, α2AAR-Y409^6.55F, α2AAR-F427^7.39F, α2AAR-Y431^7.43A, and α2AAR-Y431^7.43F was monitored by G protein activation as described above transfecting the appropriate receptor together with Gαi1-RLucII and Gβ1/Gγ2-GFP10. […] Similarly, the effect of the α2AAR-D128^3.32A, α2AAR-S215^5.42A, α2AAR-Y409^6.55A, α2AAR-Y409^6.55F, α2AAR-F427^7.39F, α2AAR-Y431^7.43A, and α2AAR-Y431^7.43F mutations on arrestin recruitment was evaluated as described above transfecting the appropriate receptor together with CAAX-rGFP, GRK2 and β-arrestin-2-RLucII. Data was analyzed as ligand induced changes in BRET compared to vehicle (deltaBRET). Three to seven experiments were done in duplicate.

[2] = Pharmacokinetics in mice (plasma, brain, CSF); type: in vivo
[3] = Metabolic stability in male rat liver microsomes; type: in vitro ADME; details: 1 hour
[4] = molecular target: ALPHA-2A ADRENERGIC RECEPTOR (Homo sapiens (Human), UniProt P08913); test: Gi recruitment (G protein); type: cell-based; details: Gi recruitment
ALPHA-2A ADRENERGIC RECEPTOR, sequence (P08913 whole entry): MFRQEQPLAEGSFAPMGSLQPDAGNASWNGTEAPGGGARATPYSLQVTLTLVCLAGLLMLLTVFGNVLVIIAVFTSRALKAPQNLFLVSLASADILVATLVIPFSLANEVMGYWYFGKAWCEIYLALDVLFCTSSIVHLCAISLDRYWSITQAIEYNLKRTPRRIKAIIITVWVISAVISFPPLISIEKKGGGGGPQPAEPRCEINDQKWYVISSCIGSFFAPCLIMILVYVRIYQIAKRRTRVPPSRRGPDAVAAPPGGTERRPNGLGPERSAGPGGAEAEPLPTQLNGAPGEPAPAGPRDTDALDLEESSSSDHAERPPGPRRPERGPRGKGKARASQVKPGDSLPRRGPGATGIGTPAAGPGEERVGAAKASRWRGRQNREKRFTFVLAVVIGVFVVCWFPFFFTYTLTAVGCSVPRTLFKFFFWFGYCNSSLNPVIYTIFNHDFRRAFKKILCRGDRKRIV

[5] = molecular target: human α2AAR (Homo sapiens (Human), UniProt P08913); test: Gαi G protein activation, BRET biosensor assay in HEK293T cells; details: for Emax: HEK-293T
human α2AAR, sequence (P08913 whole entry): as above

[6] = mouse, plasma, ip, I.P. 10 mg/kg

α2AAR-S215^5.42A, sequence (P08913 whole entry S215A): as the sequence (P08913 whole entry) above, with S215A counted along it

Fold improvement of Gi potency at S215^5.42A [1]: 11 fold
Fold greater CSF Cmax than PS75 ([2]; 10 mg/kg i.p.): 4 fold
half-life ([2]; C57BL/6N ('9087, '7075, '4622), CD-1 (PS75), mouse, CSF, ip, I.P. 10 mg/kg, read-out: T ½ CSF (converted)): 13.2 min
AUC Brain ([2]; I.P. 10 mg/kg): 814000 ng·min/mL
AUC CSF ([2]; I.P. 10 mg/kg): 12000 ng·min/mL
Cmax Brain ([2]; I.P. 10 mg/kg): 8570 ng/mL
Cmax CSF ([2]; I.P. 10 mg/kg): 412 ng/mL
half-life ([2]; mouse, brain, ip, I.P. 10 mg/kg, read-out: T ½ Brain (converted)): 43.8 min
AUC [2, 6]: 952 ng·h/mL
Cmax [2, 6]: 694 ng/mL
half-life ([2]; mouse, plasma, ip, I.P. 10 mg/kg, read-out: T ½ Plasma (converted)): 38.4 min
Metabolic stability, compound remaining [3]: remain largely unmodified after 1 hour
functional classification (agonist / weak agonist) ([4]; Table 6, result in words): agonist
EC50 ([4]; Table 6, read-out: EC50): 4.1 nM
Emax ([4]; Table 6, read-out: Emax (%)): 89%
Fold increased Gi potency compared to ‘9087 [5]: 13 fold
EC50 ([5]; Gi EC50 ± SE, BRET biosensor, human α2AAR (Table 3)): 4.1 nM
EC50 ([5]; Gαi EC50, BRET biosensor, HEK293T, human α2AAR): 4.1 nM
Emax ([5]; read-out: Gi Emax ± SEM): 93%
Emax ([5]; read-out: Gαi Emax): 93%
SMILES: Fc1cccc2c(Nc3ccncc3)cccc12 [Compound 7075, N-(5-fluoronaphthalen-1-yl)pyridin-4-amine]
